Measured values: patent US20050084456A1, “Functionalized particles” (priority 2003, published 2005)

Assay: Distribution of intravenously administered FITC-labeled NIPA nanoparticles in uveal tissue
Conditions: 12 hours after intravenous administration; FIG. 3

## fluorescein-isothiocyanate [FITC]
  presence / accumulation in uveal tissue: no accumulation
